Measured values: ChEMBL document CHEMBL1136033, “Effects of the incorporation of IBTM beta-turn mimetics into the dipeptoid CCK(1) receptor agonist PD 170292” (Bioorg Med Chem Lett, 2002)

Legend:
[1] = target: T1, Gastrin/cholecystokinin type B receptor (Rattus norvegicus, UniProt P30553); experiment: Inhibition of [3H]propionyl-CCK-8 specific binding to rat cerebral cortex membranes Cholecystokinin type B receptor; type: cell membranes, Membrane
T1 sequence (P30553 whole entry): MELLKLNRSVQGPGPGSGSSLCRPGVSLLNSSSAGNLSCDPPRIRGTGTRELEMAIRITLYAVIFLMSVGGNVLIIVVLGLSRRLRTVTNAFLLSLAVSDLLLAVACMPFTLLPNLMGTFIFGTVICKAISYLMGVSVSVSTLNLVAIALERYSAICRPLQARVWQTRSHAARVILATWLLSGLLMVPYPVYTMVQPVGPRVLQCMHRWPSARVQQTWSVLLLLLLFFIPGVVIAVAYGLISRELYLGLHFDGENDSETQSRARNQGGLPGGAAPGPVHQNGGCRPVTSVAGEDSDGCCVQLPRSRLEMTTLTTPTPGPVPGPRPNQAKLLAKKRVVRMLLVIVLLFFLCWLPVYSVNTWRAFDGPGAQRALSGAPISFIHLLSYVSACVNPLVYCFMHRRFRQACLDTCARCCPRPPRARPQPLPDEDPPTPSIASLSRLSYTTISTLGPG

[2] = target: T2, Cholecystokinin receptor type A (Rattus norvegicus, UniProt P30551); experiment: Inhibition of [3H]propionyl-CCK-8 specific binding to rat pancreatic Cholecystokinin type A receptor
T2 sequence (P30551 whole entry): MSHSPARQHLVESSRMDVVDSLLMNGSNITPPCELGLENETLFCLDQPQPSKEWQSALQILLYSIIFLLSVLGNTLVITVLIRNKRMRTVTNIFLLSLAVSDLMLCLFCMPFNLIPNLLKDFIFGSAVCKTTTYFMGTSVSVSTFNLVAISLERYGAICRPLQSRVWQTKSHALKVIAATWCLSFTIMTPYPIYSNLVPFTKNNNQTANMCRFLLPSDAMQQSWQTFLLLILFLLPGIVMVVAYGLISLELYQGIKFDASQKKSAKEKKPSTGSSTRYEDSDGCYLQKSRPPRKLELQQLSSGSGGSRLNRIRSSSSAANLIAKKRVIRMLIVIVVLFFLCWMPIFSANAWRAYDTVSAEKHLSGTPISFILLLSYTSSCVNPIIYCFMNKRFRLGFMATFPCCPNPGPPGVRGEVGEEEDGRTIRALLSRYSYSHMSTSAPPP

[3] = The compound was tested to antagonize the CCK-8 induced amylase secretion from pancreatic acini; type: functional

SMILES	IC50 [1] [µM]	IC50 [2] [µM]	IC50 [3] [µM]
Cc1ccccc1NC(=O)NCCCC[C@@H](CC(=O)O)NC(=O)[C@@](C)(Cc1c[nH]c2ccccc12)NC(=O)OC1C2CC3CC(C2)CC1C3 (some centres not stated) [PD-170292]	0.0067	–	–
Cc1ccccc1NC(=O)NCCCC[C@@H](CC(=O)O)NC(=O)[C@H]1Cc2c([nH]c3ccccc23)[C@@H]2C[C@@H](NC(=O)OCc3ccccc3)C(=O)N12	5.8	0.0082	0.196
O=C(N[C@H]1C[C@@H]2c3[nH]c4ccccc4c3C[C@@H](C(=O)N[C@@H](Cc3ccccc3)C(=O)O)N2C1=O)OCc1ccccc1	> 10	–	–
Cc1ccccc1NC(=O)NCCCC[C@@H](CC(=O)O)NC(=O)[C@@H]1Cc2c([nH]c3ccccc23)[C@H]2C[C@H](NC(=O)OCc3ccccc3)C(=O)N21	> 10	0.324	–
